Tests used:
[1] = test system: Mouse preosteoblastic MC3T3 cells; experiment: Microarray analysis of gene expression in ET-treated mouse osteoblasts; type: cell-based; conditions: for # Genes Blocked by ABT-627, percent of genes induced by ET: drug added 1 hour prior to ET; for Induced by ET (number of genes): genes regulated ≧1.5-fold, p ≦0.01
Description: (§1) Mouse MC3T3 pre-osteoblastic cells (subclone 4) were purchased from ATCC (Manassis, Va.) and propagated in αMEM media without ascorbic acid (Invitrogen, Carlsbad, Calif.) supplemented with 10% FBS (Invitrogen). Human Mesenchymal Stem Cells (MSCs) were purchased from Cambrex (Walkersville, Md.) and propagated according in MSCGM™ media (Cambrex). To initiate differentiation of the MSC into human osteoblasts, the growth media was replaced by osteogenic differentiation medium (OGM, Cambrex).
(§2) Mouse preosteoblastic MC3T3 cells as well as primary human osteoblasts were treated with ET, from Sigma (St. Louis, Mo.), for 2, 4, and 6 hours in the absence or presence of the ETa receptor antagonist ABT-627, from Abbott Laboratories (Abbott Park, Ill.). The drug was added 1 hour prior to the addition of ET.
Total RNA was extracted from the treated cell lines and purified on RNeasy columns (Qiagen, Valencia, Calif.). Labeled cRNA was prepared according to the microarray manufacturer Affymetrix's protocol and hybridized to either mouse 430A 2.0 or human U133A 2.0 arrays (Affymetrix, Santa Clara, Calif.). Gene expression fold changes for each treatment were calculated by combining three biological replicates for each treatment using the Rosetta Resolver's Affymetrix error model software and building a ratio from the resulting values. All genes regulated ≧1.5-fold with a p-value of ≦0.01 were retained for further analysis. Conventional two-dimensional clustering was then performed by using the agglomerative hierarchical clustering algorithm. The Euclidean distance was used as the similarity metric.

[2] = test system: mouse MC3T3 osteoblast cell line; experiment: ELISA assays of secreted PAI-1, OPG and IL-6 in osteoblast supernatants; type: cell-based
Description: as §1
Mouse MC3T3 osteoblast cells were propagated as set out above, and at times indicated were harvested and spun at 250×g for 10 minutes at room temperature. The clarified supernatants were aliquoted and frozen until analyzed. 200 microliters of each sample was tested in quadruplicate by commercially available ELISA assay kits for PAI-1 (Molecular Innovations, Southfield, Mich.), OPG (Biomedica, San Diego, Calif.) and IL-6 (Ray Biotech, Norcross, Ga.). The ELISA tests were performed according to the manufacturer's instructions. Data from these tests are shown in FIG. 1 (PAI-1), FIG. 2 (OPG) and FIG. 3 (IL-6).

osteoblastic metastases = conditions: Yin et al. 2003; cited from earlier work
[3] = test system: metastatic hormone-refractory prostate cancer; conditions: patients with metastatic hormone-refractory prostate cancer; Nelson et al. 2003; cited from earlier work
[4] = test system: primary human osteoblasts; experiment: Microarray analysis of gene expression in ET-treated primary human osteoblasts; type: cell-based; conditions: ET-1 treatment
Description: as §1, §2
Total RNA was extracted from the treated cell lines and purified on RNeasy columns (Qiagen, Valencia, Calif.). Labeled cRNA was prepared according to the microarray manufacturer Affymetrix's protocol and hybridized to either mouse 430A 2.0 or human U133A 2.0 arrays (Affymetrix, Santa Clara, Calif.). Gene expression fold changes for each treatment were calculated by combining three biological replicates for each treatment using the Rosetta Resolver's Affymetrix error model software and building a ratio from the resulting values. […]

[5] = endothelin in the presence of ABT-627

CCCCN(CCCC)C(=O)CN1C[C@H](c2ccc3c(c2)OCO3)[C@@H](C(=O)O)[C@@H]1c1ccc(OC)cc1 [ABT-627, (2R,3R,4S)-(+)-2-(4-Methoxyphenyl)-4-(1,3-benzodioxol-5-yl)-1-(N,N-di(n-butyl)aminocarbonylmethyl)-pyrrolidine-3-carboxylic acid]
# Genes Blocked by ABT-627, percent of genes induced by ET ([1]; 2 hr ET): (96%) | # Genes Blocked by ABT-627, percent of genes induced by ET ([1]; 4 hr ET): (83%) | # Genes Blocked by ABT-627, percent of genes induced by ET ([1]; 6 hr ET): (97%) | Induction by ET of suppression-of-apoptosis genes (Nur77, Flt1, NFATc1) ([1]; ET in presence of ABT-627): the induction was blocked | Effect of pre-treatment on ET gene induction events ([1]; all three timepoints (2, 4, 6 hours), pre-treatment before ET): abrogated almost all of these gene induction events | Gene expression changes caused by antagonist alone ([1]; antagonist alone, no ET): very few gene expression changes | Induction by ET-1 of osteoblastic maturation genes (OPG, COX-2, Dmp1, Tgfbi, CTGF, Klf10) ([1]; pre-treatment with ABT-627): blocked | Endothelin-induced expression of IL-6 (ELISA) [2, 5]: substantial suppression | Endothelin-induced expression of OPG (ELISA) [2, 5]: substantial suppression | Endothelin-induced expression of PAI-1 (ELISA) [2, 5]: substantial suppression | Metastatic growth (osteoblastic metastases): suppressed | Time to disease progression [3]: extended

CC[C@H](C)[C@H](NC(=O)[C@H](CC(=O)O)NC(=O)[C@H](CC(C)C)NC(=O)[C@H](Cc1c[nH]cn1)NC(=O)[C@@H]1CSSC[C@H](N)C(=O)N[C@@H](CO)C(=O)N[C@H]2CSSC[C@H](NC(=O)[C@H](CCC(=O)O)NC(=O)[C@H](CCCCN)NC(=O)[C@H](CC(=O)O)NC(=O)[C@H](CCSC)NC(=O)[C@H](CC(C)C)NC(=O)[C@H](CO)NC(=O)[C@H](CO)NC2=O)C(=O)N[C@@H](C(C)C)C(=O)N[C@@H](Cc2ccc(O)cc2)C(=O)N[C@@H](Cc2ccccc2)C(=O)N1)C(=O)N[C@H](C(=O)N[C@@H](Cc1c[nH]c2ccccc12)C(=O)O)[C@@H](C)CC [ET]
# Genes Down-regulated by ET ([1]; 2 hr ET treatment): 423 | Induced by ET (number of genes) ([1]; 2 hr ET treatment): 608 | # Genes Down-regulated by ET ([1]; 4 hr ET treatment): 295 | Induced by ET (number of genes) ([1]; 4 hr ET treatment): 472 | # Genes Down-regulated by ET ([1]; 6 hr ET treatment): 95 | Induced by ET (number of genes) ([1]; 6 hr ET treatment): 194 | Expression of suppression-of-apoptosis genes (Nur77, Flt1, NFATc1) ([1]; ET treatment): induced | Expression of genes coding for secreted proteins (PAI-1, uPA, TGFbeta2, IL-6, IL-8) ([1]; mouse osteoblasts, ET-1 treatment): strongly upregulated | Expression of genes coding for secreted proteins (PAI-1, uPA, TGFbeta2, IL-6, IL-8) [4]: strongly upregulated | Expression of IL-6 (ELISA) ([2]; treatment with endothelin): strongly induced | Expression of OPG (ELISA) ([2]; treatment with endothelin): strongly induced | Expression of PAI-1 (ELISA) ([2]; treatment with endothelin): strongly induced

Source: US20100184026A1, “Companion Diagnostic Assays For Endothelin Receptor Antagonists” (ABBOTT LABORATORIES, priority 2009, published 2010)
